Results: patent publication US9169519B2, “SUMO as a marker of cancer development and target for cancer therapy” (Duke University, priority 2010, dated 2015)

System: F98 rat glioblastoma cells
Assay: 3H-thymidine incorporation into DNA (DNA synthesis), with or without radiation
Type: cell-based
Settings: 100 nM 4-HT versus vehicle, no radiation (FIG. 6B)
Experimental: To investigate whether DNA synthesis of glioblastoma cells is modified by SUMO conjugation, the effects of suppressing SUMO conjugation on the incorporation of ^3H-thymidine into DNA was evaluated. SUMO conjugation was suppressed by blocking its expression using a miRNA approach. To avoid the risk of adaptive processes taking place in cells where SUMO expression had been silenced during the long selection process for stably transfected cells, a 4-hydroxy tamoxifen (4-HT)-inducible lentiviral system was used to express designed miRNAs (Callus et al., Cell Death Diff. 15: 213-219 (2008)). Briefly, the 4-HT inducible lentiviral system utilizes two constructs and the UAS/GAL4 system. […]
The effect of SUMO1/2/3 miRNA expression on radiation induced impairment of DNA synthesis was investigated by measuring the uptake of ^3H-thymidine. […] Irradiated cells were detached with trypsin-EDTA (Fisher Scientific), counted, re-suspended in culture medium with supplements described above, and re-plated in a 96-well plate at a density of 10,000 cells per well. […] Cells were harvested 24 hr later following detachment with trypsin-EDTA, collected on filter paper, dried overnight, and immersed in scintillation cocktail (ICN Biochemicals), and counted for 10 min in a liquid scintillation counter. […]

With 4-hydroxy tamoxifen [4-HT] the “3H-thymidine incorporation into DNA” value was “did not produce any major change”.
